Key:
[1] = Aging and yellowing tests; format: physicochemical
Method: Various aliphatic aldehydes were incorporated into a cosmetic composition, having a formulation corresponding to example 2, at concentrations respectively of 0.001%, 0.002%, 0.005% and 0.01%.
These were methylbutyraldehyde (by way of comparison), hexanal, nonanal, trans-4-decenal, undecanal and undecylenic aldehyde.
The aging, and in particular the tendency toward yellowing, of each composition were tested. The various tests performed comprise holding for one month in an oven at 45° C. and four months in an oven at 50° C., and also exposure to “SUNTEST CPS+”, i.e. in a sealed chamber, regulated at 50° C. under a 500 Watt/m^2 UV/visible lamp for 3×10 hours.
The yellowing was evaluated relative to control compositions having identical formulations, kept at room temperature (20-25° C.), in the dark, for the same duration.

fingernails = experiment: In vivo tests of efficacy on a panel of people, polish applied to nails; settings: hexanal 0.05% by weight, panel of 22, four weeks
Description: The composition from example 1 was the subject of in vivo tests on a panel of 22 people aged at least 30 years old, over four weeks, in order to evaluate the efficacy and tolerance. […] The polish was applied under normal usage conditions (namely three applications per week).
The marks of general satisfaction with the cosmetic composition oscillated between 16.9 and 18.3/20.
The marks of general satisfaction with the cosmetic composition oscillated between 16 and 17.3/20.

nails = experiment: In vivo comparison of hexanal composition with citral composition, one hand each; parameters: species or system people; settings: same concentrations, panel of 22, four weeks
Description: The composition of example 1 and also a composition 1a identical to that of example 1, but in which the hexanal has been replaced by citral, in the same concentrations, were the subject of in vivo tests on a new panel of 22 people under the same conditions as those of the tests from example 1. Each person applied the composition with hexanal to the nails of one hand, and the composition with citral to the nails of the other hand. The right hand/left hand choice was random.

[2] = 0.01% in composition, one month in an oven at 45° C., relative to controls at room temperature in the dark
[3] = 0.01% by weight in composition, aging tests relative to controls

Compound | Yellowing [1, 2] | Yellowing [1, 3] | further results
methylbutyraldehyde [reference compound] | exhibited yellowing | – | –
CCCCCC=O [hexanal] | – | did not exhibit yellowing | Subjects who noticed an overall improvement in the quality of their nails (fingernails): more than 90%; Superiority to citral in improvement of brittle nails (nails): +10%; Superiority to citral in improvement of nail hardness (nails): +8.5%; Superiority to citral in improvement of nail weakness (nails): +18%
CCCCCCCCC=O [nonanal] | – | did not exhibit yellowing | –
CCCCC/C=C/CCC=O [trans-4-decenal] | – | did not exhibit yellowing | –
CCCCCCCCCCC=O [undecanal] | – | did not exhibit yellowing | –
C=CCCCCCCCCC=O [undecylenic aldehyde, 10-undecenal] | exhibited yellowing | – | –
